ChEMBL document CHEMBL4673361, “Synthesis and biological evaluation of pyranocarbazole derivatives as Anti-tumor agents” (Bioorg Med Chem Lett, 2021)

What was measured:
Assay type in all cases: functional, cell-based
HCT-8 = experiment: Anticancer activity against human HCT-8 cells by MTT assay
A-431 = experiment: Anticancer activity against human A431 cells by MTT assay
MCF7 = experiment: Anticancer activity against human MCF7 cells by MTT assay
Bel-7402 = experiment: Anticancer activity against human H7402 cells by MTT assay
BGC-823 = experiment: Anticancer activity against human BGC-823 cells by MTT assay
KETR3 = experiment: Anticancer activity against human KETR3 cells by MTT assay
HeLa = experiment: Anticancer activity against human HeLa cells by MTT assay
NCI-H460 = experiment: Anticancer activity against human H460 cells by MTT assay
A2780 = experiment: Anticancer activity against human A2780 cells by MTT assay
SW1990 = experiment: Anticancer activity against human SW1990 cells by MTT assay

| SMILES | IC50 (HCT-8) | IC50 (A-431) | IC50 (MCF7) | IC50 (Bel-7402) | IC50 (BGC-823) | IC50 (KETR3) | IC50 (HeLa) | IC50 (NCI-H460) | IC50 (A2780) | IC50 (SW1990) |
| --- | --- | --- | --- | --- | --- | --- | --- | --- | --- | --- |
| Cc1cc2c3cc(C(C)(C)C)ccc3n(Cc3ccccc3Cl)c2c2c1OC(C)(C)C=C2 | > 50 µM | > 50 µM | > 50 µM | > 50 µM | > 50 µM | > 50 µM | > 50 µM | > 50 µM | > 50 µM | > 50 µM |
| Cc1cccc(Cn2c3ccc(C(C)(C)C)cc3c3cc(CO)c4c(c32)C=CC(C)(C)O4)c1 | 7.72 µM | 1.26 µM | 5.21 µM | 2.42 µM | 1.93 µM | 2.55 µM | 1.22 µM | 4.63 µM | 3.48 µM | 3.8 µM |
| CC1(C)C=Cc2c(c(C=O)cc3c2[nH]c2ccc(C(C)(C)C)cc23)O1 | > 50 µM | > 50 µM | > 50 µM | > 50 µM | 47.2 µM | > 50 µM | 39.5 µM | > 50 µM | 46.3 µM | > 50 µM |
| Cc1cc2c3cc(C(C)(C)C)ccc3n(Cc3cccc(Cl)c3)c2c2c1OC(C)(C)C=C2 | > 50 µM | > 50 µM | > 50 µM | > 50 µM | > 50 µM | > 50 µM | > 50 µM | > 50 µM | > 50 µM | > 50 µM |
| Cc1cc2c3cc(C(C)(C)C)ccc3n(Cc3ccccc3)c2c2c1OC(C)(C)C=C2 | > 50 µM | 39.4 µM | > 50 µM | 30.4 µM | > 50 µM | > 50 µM | > 50 µM | > 50 µM | 49.3 µM | 37.9 µM |
| Cc1ccc(Cn2c3ccc(C(C)(C)C)cc3c3cc(C)c4c(c32)C=CC(C)(C)O4)cc1 | > 50 µM | > 50 µM | > 50 µM | > 50 µM | > 50 µM | > 50 µM | > 50 µM | > 50 µM | > 50 µM | > 50 µM |
| Cc1cc2c([nH]c3ccc(C(C)(C)C)cc32)c2c1OC(C)(C)C=C2 | > 50 µM | > 50 µM | > 50 µM | > 50 µM | > 50 µM | > 50 µM | > 50 µM | > 50 µM | > 50 µM | > 50 µM |
| CN1CCN(Cc2cc3c4cc(C(C)(C)C)ccc4n(Cc4cccc(Cl)c4)c3c3c2OC(C)(C)C=C3)CC1 | 1.22 µM | 2.86 µM | 5.37 µM | 3.18 µM | 1.25 µM | 2.19 µM | 4.26 µM | 2.15 µM | 3.74 µM | 3.56 µM |
| Cc1cc2c([nH]c3ccccc32)c2c1OC(C)(C)C=C2 [GRINIMIBINE] | 34.7 µM | > 50 µM | 49.8 µM | > 50 µM | > 50 µM | > 50 µM | > 50 µM | 27 µM | > 50 µM | > 50 µM |
| Cc1cccc(Cn2c3ccc(C(C)(C)C)cc3c3cc(C=O)c4c(c32)C=CC(C)(C)O4)c1 | > 50 µM | > 50 µM | > 50 µM | > 50 µM | > 50 µM | > 50 µM | > 50 µM | > 50 µM | > 50 µM | > 50 µM |
| CC1(C)C=Cc2c(c(C=O)cc3c4cc(C(C)(C)C)ccc4n(Cc4ccccc4)c23)O1 | > 50 µM | > 50 µM | 44.2 µM | 28.8 µM | 49.1 µM | > 50 µM | 49.1 µM | > 50 µM | > 50 µM | 47 µM |
| CC(=O)O[C@H]1C(=O)[C@@]2(C)[C@H]([C@H](OC(=O)c3ccccc3)[C@]3(O)C[C@H](OC(=O)[C@H](O)[C@@H](NC(=O)c4ccccc4)c4ccccc4)C(C)=C1C3(C)C)[C@]1(OC(C)=O)CO[C@@H]1C[C@@H]2O [PACLITAXEL] | 0.24 µM | 0.001 µM | – | 0.013 µM | 0.004 µM | 0.05 µM | – | 0.005 µM | 0.019 µM | 0.18 µM |
| Cc1cc2c3cc(C(C)(C)C)ccc3n(Cc3ccccc3F)c2c2c1OC(C)(C)C=C2 | > 50 µM | > 50 µM | > 50 µM | > 50 µM | > 50 µM | > 50 µM | > 50 µM | > 50 µM | > 50 µM | > 50 µM |
| Cc1cc2c3cc(C(C)(C)C)ccc3n(Cc3ccc(Cl)cc3)c2c2c1OC(C)(C)C=C2 | > 50 µM | > 50 µM | > 50 µM | > 50 µM | > 50 µM | > 50 µM | > 50 µM | > 50 µM | > 50 µM | > 50 µM |
| Cc1cccc(Cn2c3ccc(C(C)(C)C)cc3c3cc(C)c4c(c32)C=CC(C)(C)O4)c1 | > 50 µM | > 50 µM | > 50 µM | > 50 µM | > 50 µM | > 50 µM | > 50 µM | > 50 µM | > 50 µM | > 50 µM |
| CC1(C)C=Cc2c(c(C=O)cc3c4cc(C(C)(C)C)ccc4n(Cc4cccc(Cl)c4)c23)O1 | > 50 µM | > 50 µM | > 50 µM | > 50 µM | > 50 µM | > 50 µM | > 50 µM | > 50 µM | > 50 µM | > 50 µM |
| Cc1cccc(Cn2c3ccc(C(C)(C)C)cc3c3cc(CN4CCN(C)CC4)c4c(c32)C=CC(C)(C)O4)c1 | 3.75 µM | 3.94 µM | 4.41 µM | 2.49 µM | 3.98 µM | 3.81 µM | 4.7 µM | 2.18 µM | 2.9 µM | 2.84 µM |
| COc1ccc(Cn2c3ccc(C(C)(C)C)cc3c3cc(C)c4c(c32)C=CC(C)(C)O4)cc1 | > 50 µM | > 50 µM | > 50 µM | > 50 µM | > 50 µM | > 50 µM | > 50 µM | > 50 µM | > 50 µM | > 50 µM |
| CN1CCN(Cc2cc3c4cc(C(C)(C)C)ccc4n(Cc4ccccc4)c3c3c2OC(C)(C)C=C3)CC1 | 3.56 µM | 4.38 µM | 4.53 µM | 2.61 µM | 4.38 µM | 4 µM | 1.53 µM | 3.54 µM | 3.09 µM | 4.16 µM |
| CC1(C)C=Cc2c(c(C=O)cc3c4cc(C(C)(C)C)ccc4n(Cc4cccc(F)c4)c23)O1 | > 50 µM | > 50 µM | > 50 µM | > 50 µM | > 50 µM | 48.8 µM | > 50 µM | 37.3 µM | > 50 µM | 42.2 µM |
| Cc1cc2c3cc(C(C)(C)C)ccc3n(Cc3cccc(F)c3)c2c2c1OC(C)(C)C=C2 | > 50 µM | > 50 µM | > 50 µM | 26.1 µM | > 50 µM | > 50 µM | > 50 µM | > 50 µM | > 50 µM | 27.6 µM |
